The values below are quoted from earlier work in US20170259275A1, “PROCESS FOR SEPARATING AMINO AND/OR ORGANIC ACID-CONTAINING PARTICLES FROM A MIXTURE” (Sanovations B.V., priority 2014, published 2017).

Each structure is given as a SMILES string.

For data set [1] the following is noted: 25° C., water.
For data set [2] the following is noted: solid, crystalline form.

Turning to `CC(C)C[C@H](N)C(=O)O` [Leucine], the “Aqueous Solubility” value in data set [1] was 2.426 g/100 g.
As to `CC(C)[C@H](N)C(=O)O` [Valine], the “Aqueous Solubility” value in data set [1] was 8.85 g/100 g. Further, the “Crystal Density” value in data set [2] was 1.267 g/mL.
As to `NC(=O)CC[C@H](N)C(=O)O` [Glutamine], the “Aqueous Solubility” value in data set [1] was 2.5 g/100 g.
On to `N[C@@H](Cc1c[nH]cn1)C(=O)O` [Histidine], for which the “Aqueous Solubility” value in data set [1] is 4.19 g/100 g. The “Crystal Density” value in data set [2] is 1.412 g/mL.
Consider `CSCC[C@H](N)C(=O)O` [Methionine], for which the “Aqueous Solubility” value in data set [1] was 3.381 g/100 g. For the same molecule, the “Crystal Density” value in data set [2] is 1.311 g/mL.
With `N[C@@H](Cc1c[nH]c2ccccc12)C(=O)O` [Tryptophan], the “Aqueous Solubility” value in data set [1] is reported as 1.136 g/100 g. In addition, the “Crystal Density” value in data set [2] was 1.303 g/mL.
With `N[C@@H](Cc1ccc(O)cc1)C(=O)O` [Tyrosine], in data set [2], the “Crystal Density” value was 1.403 g/mL.
Take `NCCCC[C@H](N)C(=O)O` [Lysine]: the “Aqueous Solubility” value in data set [1] was 30 g/100 g. Besides, the “Crystal Density” value in data set [2] is 1.237 g/mL.
For the molecule `NC(=O)C[C@H](N)C(=O)O` [Asparagine], in data set [1], the “Aqueous Solubility” value is recorded as 3.53 g/100 g.
On to `N[C@@H](CO)C(=O)O` [Serine], for which the “Crystal Density” value in data set [2] is 1.582 g/mL.
Take `CC[C@H](C)[C@H](N)C(=O)O` [Isoleucine]: the “Aqueous Solubility” value in data set [1] was 4.117 g/100 g. Moreover, in data set [2], the “Crystal Density” value was 1.201 g/mL.
As for `N[C@@H](CCC(=O)O)C(=O)O` [Glutamic Acid], the “Crystal Density” value in data set [2] was 1.566 g/mL.
As to `N=C(N)NCCC[C@H](N)C(=O)O` [Arginine], in data set [2], the “Crystal Density” value was 1.325 g/mL.
Regarding `C[C@@H](O)[C@H](N)C(=O)O` [Threonine], the “Crystal Density” value in data set [2] is 1.499 g/mL.
Turning to `N[C@@H](Cc1ccccc1)C(=O)O` [Phenylalanine], the “Aqueous Solubility” value in data set [1] is recorded as 2.965 g/100 g. In data set [2], the “Crystal Density” value was 1.315 g/mL.
For the molecule `NCC(=O)O` [Glycine], the “Crystal Density” value in data set [2] is 1.598 g/mL.
Turning to `C[C@H](N)C(=O)O` [Alanine], the “Aqueous Solubility” value in data set [1] was 16.65 g/100 g. Moreover, the “Crystal Density” value in data set [2] is 1.371 g/mL.
Take `N[C@@H](CS)C(=O)O` [Cysteine]: the “Aqueous Solubility” value in data set [1] is 28 g/100 g. The “Crystal Density” value in data set [2] is 1.495 g/mL.
As to `O=C(O)[C@@H]1CCCN1` [Proline], the “Crystal Density” value in data set [2] was 1.376 g/mL.
With `N[C@@H](CC(=O)O)C(=O)O` [Aspartic Acid], the “Crystal Density” value in data set [2] is 1.636 g/mL.
